Legend:
[1] = test system: Human gingival fibroblasts; assay: Biocompatibility (cytotoxicity) test, Calcein-AM cell survival; type: cell-based; conditions: 24 h exposure, FIG. 1
Description: Synthesized monomers (Formulas 4-6, 10, and 11) and methacryloyloxyundecyldi-methylbenzylammonium bromide (Formula 1) were tested for biocompatibility (cytotoxicity). Human gingival fibroblasts were obtained from extracted molars from patients with healthy gingival following informed consent as prescribed in an approved IRB protocol. Gingival fibroblasts were maintained in MEM containing 10% fetal calf serum (FCS) and 200 units/mL penicillin and 200 μg/mL streptomycin. Cells were grown in 48-well plates for 24 h prior to exposure to the monomers. The growth media containing 0.1% dimethylsulfoxide (DMSO) were supplemented with 10^−4 M, 10^−5 M, 10^−6 M and 10^−7 M concentrations of five newly synthesized exemplary monomers (Formulas 4-6, 10, and 11) and added to the cells for 24 h. MEM served as a control for cytotoxicity. Cell survival was visualized using a fluorescent esterase substrate (Calcein-AM) and a inverted fluorescent microscope. Cell survival was quantified using a fluorescent multi-well plate reader.

[2] = test system: Streptococcus mutans, Lactobacillus casei, Staphylococcus aureus and Pseudomonas aeruginosa; assay: Antimicrobial activity, automated growth curve analysis; type: cell-based; conditions: 10^−4 M-10^−7 M in BMGS medium, triplicate, FIG. 2
Description: Evaluation of antimicrobial activities of Formula 1 and synthesized monomers (Formulas 4-6, 10, and 11) was also performed. Streptococcus mutans was grown in brain heart infusion (BHI, Difco Laboratories, Detroit, Mich.), Lactobacillus casei was grown in MRS medium (Difco), Staphylococcus aureus and Pseudomonas aeruginosa were grown in Trypticase Soy Broth (TSB; Difco). They all were grown under static conditions in an 37° C. aerobic chamber with (for S. mutans only) or without 5% CO2. For antimicrobial assay, these bacteria were cultivated using a modified semi-defined biofilm medium (BM) with glucose (18 mM) and sucrose (2 mM) (BMGS) as the supplemental carbohydrate sources. Antimicrobial efficacy was measured using an automated growth curve analysis system. Overnight cultures were transferred to fresh medium and allowed to grow to mid-exponential phase, when they were properly diluted in BMGS and allowed to grow in the automated growth curve analysis system with and without inclusion of Formula 1 and synthesized monomers (Formulas 4-6, 10, and 11). All antimicrobial monomers were dissolved in DMSO at 10^−2 M concentration and serial dilutions were made to achieve the desired concentrations (10^−4 M-10^−7 M). All experiments were run in triplicate.

[3] = concentrations of 10^−5 M and below

Row | SMILES | cytotoxicity (cell survival) ([1]; 10^−4 M concentration) | cytotoxicity (cell survival) [1, 3] | antibacterial activity [2]
1 | C=C(C)C(=O)OCC(COC(=O)C(=C)C)OC(=O)CCCCCCCCCCCCCCC[N+](C)(C)Cc1ccccc1 [Formula 6, 2-(1,3-dimethacryloyloxy)propyl 16-N,N-dimethylbenzylammoniumhexadecanoate bromide] | significant cell death | good biocompatibility | Highest levels of antibacterial activity
2 | C=C(C)C(=O)OCC(COC(=O)C(=C)C)OC(=O)CCCCCCCCCCCCCCC[N+]12CCN(CC1)CC2.[Br-] [Formula 5, 2-(1,3-dimethacryloyloxy)propyl 16-(1-(1-azonia-4-azabicylco[2.2.2]octyl))hexadecanoate bromide] | significant cell death | good biocompatibility | Highest levels of antibacterial activity
3 | C=C(C)C(=O)OCC(COC(=O)C(=C)C)OC(=O)CCCCCCCCC[N+]12CCN(CC1)CC2.[Br-] [Formula 4, 2-(1,3-dimethacryloyloxy)propyl 10-(1-(1-azonia-4-azabicylco[2.2.2]octyl))decanoate bromide] | little cytotoxicity | – | –
4 | C=C(C)C(=O)OCCCCCCCCCCCCCCCC[N+]12CCN(CC1)CC2.[Br-] [Formula 11, 16-(1-azonia-4-azabicylco[2.2.2]octyl)hexadecylmethacrylate bromide] | little cytotoxicity | – | –

— patent publication US10392394B2, “Antimicrobial compounds and methods” (Board of Supervisors of Louisiana State University and …, priority 2013, dated 2019)
